Legend:
KPC-2 = KPC-2 (Klebsiella pneumoniae, UniProt Q9F663); conditions: read-out: IC50 β-lactamase KPC-2; class (A); nitrocefin 200 μM, 30-min pre-incubation, enzyme 1 nM
OXA-48 = OXA-48 (Klebsiella pneumoniae, UniProt Q6XEC0); conditions: read-out: IC50 β-lactamase OXA-48; class (D); nitrocefin 200 μM, 30-min pre-incubation, enzyme 0.3 nM
AmpC (PAE) = AmpC (PAE) (Pseudomonas aeruginosa, UniProt P24735); conditions: read-out: IC50 β-lactamase AmpC (PAE); class (C); nitrocefin 200 μM, 30-min pre-incubation, enzyme 0.4 nM
AmpC (P99) = AmpC (P99) (Enterobacter cloacae, UniProt P05364); conditions: read-out: IC50 β-lactamase AmpC (P99); class (C); nitrocefin 200 μM, 30-min pre-incubation, enzyme 0.2 nM
SHV-1 = SHV-1 (Klebsiella pneumoniae, UniProt P0AD64); conditions: read-out: IC50 β-lactamase SHV-1; class (A); nitrocefin 200 μM, 30-min pre-incubation, enzyme 0.075 nM
K. pneumoniae BAA-1898 [1] = experiment: MIC of ceftazidime (CAZ) at fixed concentration of compound (synergy), broth microdilution; assay type: cell-based; conditions: strain BAA-1898; MIC of CAZ, compound fixed at 4 μg/mL
Description: (§1) Log phase bacterial suspensions were adjusted to a final density of 5×10^5 cfu/mL in cation-adjusted Mueller-Hinton broth (Becton-Dickinson) and added to each well (98 μL). Microplates were incubated for 16-20 h at 35° C. in ambient air. The MIC of the compounds was defined as the lowest concentration of said compounds that prevented bacterial growth as read by visual inspection.

K. pneumoniae 6299 [2] = experiment: as above; assay type: cell-based; conditions: strain 6299; MIC of CAZ, compound fixed at 4 μg/mL
Description: as §1

P. aeruginosa CIP107051 [3] = experiment: as above; assay type: cell-based; conditions: strain CIP107051; MIC of CAZ, compound fixed at 4 μg/mL
Description: as §1

E. coli 190317 [4] = experiment: as above; assay type: cell-based; conditions: strain 190317; MIC of CAZ, compound fixed at 4 μg/mL
Description: as §1

E. cloacae P99 [5] = experiment: as above; assay type: cell-based; conditions: strain P99; MIC of CAZ, compound fixed at 4 μg/mL
Description: as §1

K. pneumoniae BAA-1898 [6] = experiment: MIC of compound alone, broth microdilution; assay type: cell-based; conditions: strain BAA-1898; compound alone
How it was run: (§2)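 Log-phase bacteria were diluted to a final 5×10^5 cfu/mL in cation-adjusted Mueller-Hinton broth and incubated 16-20 h at 35° C in ambient air. MIC was taken as the lowest concentration preventing growth, judged visually.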

K. pneumoniae 6299 [7] = experiment: MIC of compound alone, broth microdilution; assay type: cell-based; conditions: strain 6299; compound alone
How it was run: as §2

P. aeruginosa CIP107051 [8] = experiment: MIC of compound alone, broth microdilution; assay type: cell-based; conditions: strain CIP107051; compound alone
How it was run: as §2

E. coli 190317 [9] = experiment: MIC of compound alone, broth microdilution; assay type: cell-based; conditions: strain 190317; compound alone
How it was run: as §2

E. cloacae P99 [10] = experiment: MIC of compound alone, broth microdilution; assay type: cell-based; conditions: strain P99; compound alone
How it was run: as §2

OXA-1 = OXA-1 (Escherichia coli, UniProt P13661); conditions: read-out: IC50 β-lactamase OXA-1; class (D); nitrocefin 200 μM, 30-min pre-incubation, enzyme 0.2 nM
TEM-1 = TEM-1 (Escherichia coli, UniProt P62593); conditions: read-out: IC50 β-lactamase TEM-1; class (A); nitrocefin 200 μM, 30-min pre-incubation, enzyme 0.1 nM
OXA-15 = OXA-15 (Pseudomonas aeruginosa, UniProt Q51574); conditions: read-out: IC50 β-lactamase OXA-15; class (D); nitrocefin 200 μM, 30-min pre-incubation, enzyme 0.4 nM
CMY-37 = CMY-37 (Citrobacter freundii, UniProt P05193); conditions: read-out: IC50 β-lactamase CMY-37; class (C); nitrocefin 200 μM, 30-min pre-incubation, enzyme 0.2 nM
CTX-M-15 = CTX-M-15 (Escherichia coli, UniProt Q9EXV5); conditions: read-out: IC50 β-lactamase CTX-M-15; class (A); nitrocefin 200 μM, 30-min pre-incubation, enzyme 0.4 nM
OXA-11 = OXA-11 (Pseudomonas aeruginosa, UniProt Q06778); conditions: read-out: IC50 β-lactamase OXA-11; class (D); nitrocefin 200 μM, 30-min pre-incubation, enzyme 1.2 nM

Row | Compound | IC50 (KPC-2) [nM] | IC50 (OXA-48) [nM] | IC50 (AmpC (PAE)) [nM] | IC50 (AmpC (P99)) [nM] | IC50 (SHV-1) [nM] | MIC combination of CAZ and compounds of the invention at 4 μg/mL (K. pneumoniae BAA-1898 [1]) [µg/mL] | MIC combination of CAZ and compounds of the invention at 4 μg/mL (K. pneumoniae 6299 [2]) [µg/mL] | MIC combination of CAZ and compounds of the invention at 4 μg/mL (P. aeruginosa CIP107051 [3]) [µg/mL] | MIC combination of CAZ and compounds of the invention at 4 μg/mL (E. coli 190317 [4]) [µg/mL] | MIC combination of CAZ and compounds of the invention at 4 μg/mL (E. cloacae P99 [5]) [µg/mL] | MIC compounds of the invention alone (K. pneumoniae BAA-1898 [6]) [µg/mL] | MIC compounds of the invention alone (K. pneumoniae 6299 [7]) [µg/mL] | MIC compounds of the invention alone (P. aeruginosa CIP107051 [8]) [µg/mL] | MIC compounds of the invention alone (E. coli 190317 [9]) [µg/mL] | MIC compounds of the invention alone (E. cloacae P99 [10]) [µg/mL] | IC50 (OXA-1) [nM] | IC50 (TEM-1) [nM] | IC50 (OXA-15) [nM] | IC50 (CMY-37) [nM] | IC50 (CTX-M-15) [nM] | also measured
1 | N#Cc1ccn(C2=CC3CN(C2)C(=O)N3OS(=O)(=O)[O-])n1.[Na+] (stereo not drawn) [Example 17, sodium [3-(3-carbonitrilepyrazol-1-yl)-7-oxo-1,6-diazabicyclo[3.2.1]oct-3-en-6-yl]sulfate] | 3.7 | 5.8 | 280 | 30 | 1 | 0.25 | 0.25 | 8 | <0.25 | 1 | 16 | >32 | >32 | 4 | 16 | 100 | 0.23 | 30 | 87 | 0.76 | IC50 (OXA-11): 63 nM
2 | C/C(=N/O)c1cnn(C2=CC3CN(C2)C(=O)N3OS(=O)(=O)[O-])c1.[Na+] (stereo not drawn) [Example 39, sodium [3-[4-[(Z,E)-N-hydroxy-C-methyl-carbonimidoyl]pyrazol-1-yl]-7-oxo-1,6-diazabicyclo[3.2.1]oct-3-en-6-yl]sulfate] | 4.1 | 1.8 | 82 | 9.5 | 1.3 | 128 | 16 | 8 | 1 | 16 | >32 | >32 | >32 | >32 | >32 | 150 | 0.21 | 8.5 | 8.1 | 0.56 | IC50 (OXA-11): 73 nM
3 | O=C([O-])Cc1cn(C2=CC3CN(C2)C(=O)N3OS(=O)(=O)[O-])nn1.[Na+].[Na+] (stereo not drawn) [Example 61] | 17 | 0.91 | 1100 | 20 | 6.1 | 64 | 4 | 4 | 0.5 | 8 | >32 | 32 | >32 | 32 | 32 | 110 | 1.7 | 19 | 41 | 1.8 | IC50 (OXA-11): 360 nM
4 | O=C1N2CC(n3ccc(-c4ncco4)n3)=CC(C2)N1OS(=O)(=O)[O-].[Na+] (stereo not drawn) [Example 78] | 2.7 | 3 | 250 | 14 | 1.5 | 16 | 2 | 8 | 0.5 | 8 | >32 | >32 | >32 | >32 | >32 | 64 | 0.37 | 24 | 29 | 0.46 | IC50 (OXA-11): 6.5 nM
5 | CN(C)C.NC(=O)CCc1nccn1C1=CC2CN(C1)C(=O)N2OS(=O)(=O)O (stereo not drawn) [Example 73, trimethylammonium [3-[2-(3-amino-3-oxo-propyl)imidazol-1-yl]-7-oxo-1,6-diazabicyclo[3.2.1]oct-3-en-6-yl]sulfate] | 78 | 3.7 | 250 | 92 | 9.8 | 1 | 4 | 8 | 0.5 | 4 | >32 | >32 | >32 | >32 | >32 | 44 | 1.9 | 270 | 86 | 4.4 | IC50 (OXA-11): 87 nM
6 | NC(=O)c1cn(C2=CC3CN(C2)C(=O)N3OS(=O)(=O)[O-])nn1.[Na+] (stereo not drawn) [Example 56, sodium [3-(4-carbamoyltriazol-1-yl)-7-oxo-1,6-diazabicyclo[3.2.1]oct-3-en-6-yl]sulfate] | 2.4 | 0.48 | 290 | 12 | 1 | ≤0.25 | ≤0.25 | 8 | <0.25 | ≤0.25 | 32 | 32 | >32 | 4 | 8 | 30 | 0.17 | 9 | 38 | 0.44 | IC50 (OXA-11): 37 nM

From patent US10722520B2, “Heterocyclic compounds and their use in preventing or treating bacterial infections” (MUTABILIS, priority 2016, dated 2020)
